Consider 33 compounds from ChEMBL document CHEMBL1201862, “PubChem BioAssay data set” (2004).

Where a name gives a salt, the structure may show the parent alone. Activity calls are given as the source filed them. Bounds are passed on as bounds.

For experiment [1], the target named is T1, Heat shock factor protein 1 (Mus musculus, UniProt P38532).
T1 sequence (P38532 whole entry): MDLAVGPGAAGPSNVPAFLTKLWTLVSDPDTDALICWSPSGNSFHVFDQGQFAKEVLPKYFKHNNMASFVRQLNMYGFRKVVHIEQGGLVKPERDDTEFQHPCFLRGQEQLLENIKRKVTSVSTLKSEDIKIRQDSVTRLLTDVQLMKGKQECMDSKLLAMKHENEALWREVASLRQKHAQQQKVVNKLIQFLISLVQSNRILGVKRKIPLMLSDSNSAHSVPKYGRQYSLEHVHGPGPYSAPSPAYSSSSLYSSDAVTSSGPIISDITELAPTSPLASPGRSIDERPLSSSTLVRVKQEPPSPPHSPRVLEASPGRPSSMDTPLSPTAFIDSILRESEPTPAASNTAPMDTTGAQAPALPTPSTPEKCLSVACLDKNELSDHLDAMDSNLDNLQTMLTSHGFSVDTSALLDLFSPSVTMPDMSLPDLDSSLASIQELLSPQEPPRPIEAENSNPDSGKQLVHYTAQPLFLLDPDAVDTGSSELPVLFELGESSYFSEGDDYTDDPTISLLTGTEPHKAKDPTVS
Kind of experiment: inhibition of MG132-induced HSE-luciferase signal, confirmation, cell-based, NIH3T3, luminescence, dose retest (AID 2382).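 Further: NIH3T3 fibroblasts with HSF1-driven luciferase reporter stressed by proteasome inhibitor MG132; luminescence from HSF1-driven luciferase expression after 8 hours of MG132 stress.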 The format is functional.

Experiment [2] in a line: HEp-2 cell cytotoxicity, dose response, cytotoxicity control for RSV inhibitor project, HTS (AID 2410). It counts as functional. The note with it: human respiratory syncytial virus.
Experiment [3] concerns the target T2, Rac GTPase-activating protein 1 (Homo sapiens, UniProt Q9H0H5).
T2 sequence (Q9H0H5 whole entry): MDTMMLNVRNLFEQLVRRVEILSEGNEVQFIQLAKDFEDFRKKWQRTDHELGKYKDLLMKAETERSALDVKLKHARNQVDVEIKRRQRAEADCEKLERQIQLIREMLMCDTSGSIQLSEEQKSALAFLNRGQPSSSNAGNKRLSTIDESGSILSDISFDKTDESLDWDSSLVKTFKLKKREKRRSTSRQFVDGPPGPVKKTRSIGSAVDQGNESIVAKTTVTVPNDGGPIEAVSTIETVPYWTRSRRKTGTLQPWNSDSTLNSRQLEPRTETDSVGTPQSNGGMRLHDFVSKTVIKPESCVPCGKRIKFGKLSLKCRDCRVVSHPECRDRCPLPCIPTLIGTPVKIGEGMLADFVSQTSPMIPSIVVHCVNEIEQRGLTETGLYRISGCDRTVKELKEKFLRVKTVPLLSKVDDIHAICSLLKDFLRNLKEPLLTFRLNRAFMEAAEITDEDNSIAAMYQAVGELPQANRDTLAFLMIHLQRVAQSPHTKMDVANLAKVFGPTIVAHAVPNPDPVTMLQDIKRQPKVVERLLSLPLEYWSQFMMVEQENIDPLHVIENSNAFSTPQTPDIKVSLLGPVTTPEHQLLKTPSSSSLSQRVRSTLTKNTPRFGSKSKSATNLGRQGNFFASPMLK
Kind of experiment: MgcRacGAP GTPase-activating activity inhibitors, confirmation, biochemical, ADP Hunter fluorescence, primary and confirmatory (AID 624330). The format is functional.

In a further experiment the target is Cytochrome P450 2C19 (Homo sapiens, UniProt P33261). Kind of experiment: Cytochrome panel assay with activity outcomes. Panel member name: p450-cyp2c19 Compounds with AC50 equal or less than 10 uM are considered active. It counts as functional. The note with it: read-out: AC50.
In another experiment the target is Cytochrome P450 3A4 (Homo sapiens, UniProt P08684).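 Further: CYP3A4 tested as one member of a cytochrome P450 panel screen.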
The target of another experiment is T3, Cytochrome P450 1A2 (Homo sapiens, UniProt P05177).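 Further: PubChem cytochrome P450 panel assay, CYP1A2 panel member.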
T3 sequence (P05177 whole entry): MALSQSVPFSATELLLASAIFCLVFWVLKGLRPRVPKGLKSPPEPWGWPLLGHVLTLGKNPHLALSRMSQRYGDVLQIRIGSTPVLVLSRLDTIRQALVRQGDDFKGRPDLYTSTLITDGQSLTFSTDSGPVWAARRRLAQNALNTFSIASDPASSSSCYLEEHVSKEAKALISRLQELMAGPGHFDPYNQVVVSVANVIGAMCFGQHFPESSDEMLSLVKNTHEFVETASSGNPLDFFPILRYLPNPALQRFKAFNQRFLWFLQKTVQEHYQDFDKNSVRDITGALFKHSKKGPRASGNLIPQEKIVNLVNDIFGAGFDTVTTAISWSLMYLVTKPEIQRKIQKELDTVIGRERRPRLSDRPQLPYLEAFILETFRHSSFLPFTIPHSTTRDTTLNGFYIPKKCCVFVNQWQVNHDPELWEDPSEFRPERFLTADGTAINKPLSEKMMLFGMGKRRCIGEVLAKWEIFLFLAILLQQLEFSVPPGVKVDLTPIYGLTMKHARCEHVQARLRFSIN

A further experiment addresses Cytochrome P450 2C9 (Homo sapiens, UniProt P11712).
The next experiment relates to Streptococcus. The experiment can be described thus: Group A Streptococcus viability loss, dose response, counter-screen for streptokinase expression inhibitor project, luminescence, BacTiterGlo (AID 1915).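 Further: potency for reduction of bacterial viability or growth.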 It counts as functional, organism-based.
In experiment [4] the test system is Streptococcus sp. 'group A'. The experiment can be described thus: growth inhibition of control SK(-) GAS strain, dose response, counter-screen for streptokinase expression inhibitor project, luminescence, kanamycin, BacTiterGlo, confirmation (AID 1900). It counts as functional, organism-based. Background: Counterscreens check selectivity or assay interference.

Sequence of Cytochrome P450 2C9 (P11712 whole entry): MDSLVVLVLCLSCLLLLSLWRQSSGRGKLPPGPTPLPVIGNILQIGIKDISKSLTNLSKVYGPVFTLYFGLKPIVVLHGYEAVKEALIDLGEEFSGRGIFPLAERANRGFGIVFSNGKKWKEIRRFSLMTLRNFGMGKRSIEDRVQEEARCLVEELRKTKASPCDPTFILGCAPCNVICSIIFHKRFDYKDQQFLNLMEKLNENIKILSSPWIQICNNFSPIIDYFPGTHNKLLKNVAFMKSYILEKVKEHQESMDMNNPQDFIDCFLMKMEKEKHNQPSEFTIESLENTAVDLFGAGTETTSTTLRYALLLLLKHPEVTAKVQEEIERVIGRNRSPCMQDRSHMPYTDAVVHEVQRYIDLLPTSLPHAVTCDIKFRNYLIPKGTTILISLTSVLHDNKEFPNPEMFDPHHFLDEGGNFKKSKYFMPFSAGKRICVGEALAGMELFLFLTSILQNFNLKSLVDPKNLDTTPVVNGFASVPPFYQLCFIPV
Sequence of Cytochrome P450 2C19 (P33261 whole entry): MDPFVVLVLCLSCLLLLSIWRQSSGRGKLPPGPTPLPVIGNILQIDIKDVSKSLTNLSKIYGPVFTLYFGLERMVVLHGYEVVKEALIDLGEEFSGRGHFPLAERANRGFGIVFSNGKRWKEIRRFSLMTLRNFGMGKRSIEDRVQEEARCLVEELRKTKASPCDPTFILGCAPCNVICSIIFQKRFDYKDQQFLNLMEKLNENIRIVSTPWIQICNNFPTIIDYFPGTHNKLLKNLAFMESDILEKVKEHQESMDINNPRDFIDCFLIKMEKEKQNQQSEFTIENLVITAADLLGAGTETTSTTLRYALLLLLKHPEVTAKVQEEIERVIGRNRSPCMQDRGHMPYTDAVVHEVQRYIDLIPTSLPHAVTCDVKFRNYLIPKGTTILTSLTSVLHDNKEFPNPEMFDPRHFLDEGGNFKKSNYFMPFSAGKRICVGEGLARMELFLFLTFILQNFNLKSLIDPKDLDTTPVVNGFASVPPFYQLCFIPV
Sequence of Cytochrome P450 3A4 (P08684 whole entry): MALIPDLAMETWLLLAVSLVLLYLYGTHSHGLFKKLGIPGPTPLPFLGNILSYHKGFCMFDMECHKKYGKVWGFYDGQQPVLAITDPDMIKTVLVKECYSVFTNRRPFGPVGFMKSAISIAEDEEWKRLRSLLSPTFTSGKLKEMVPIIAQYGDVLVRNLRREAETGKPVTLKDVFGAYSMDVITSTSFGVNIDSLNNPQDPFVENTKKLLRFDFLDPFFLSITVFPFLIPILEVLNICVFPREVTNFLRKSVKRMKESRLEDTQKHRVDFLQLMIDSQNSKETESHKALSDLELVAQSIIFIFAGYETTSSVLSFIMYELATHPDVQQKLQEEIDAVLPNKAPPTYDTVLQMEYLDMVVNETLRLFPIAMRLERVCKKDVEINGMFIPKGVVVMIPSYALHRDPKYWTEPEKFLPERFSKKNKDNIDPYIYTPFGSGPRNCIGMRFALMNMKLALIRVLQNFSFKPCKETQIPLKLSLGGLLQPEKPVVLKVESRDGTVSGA

As usually defined, the EC50 is the concentration that produces a half-maximal response. Regarding `NC(=O)Cc1ccc(C(=O)c2ccc(Cl)cc2)s1`, the EC50 in experiment [1] is recorded as > 195 µM (not active).

What is called CC50 is the concentration that lowers cell viability or growth by half. In the case of `CCOC(=O)c1cc(-c2ccccc2)sc1NC(=O)C(C)OC(=O)c1ccncc1` (configuration not stated), the CC50 in experiment [2] was 47.6 µM (active). Turning to `CCCN1CCC(=O)N([C@H](CSc2ccccc2)Cc2ccccc2)CC1`, the EC50 in experiment [1] is > 195 µM (not active). For the compound `Cn1c(=O)c2ccccc2n(Cc2ccccc2Cl)c1=O`, the EC50 in [1] is > 195 µM (not active).

The IC50 is the concentration that inhibits the measured activity by half. On to `CC(C)c1ccc(NC(=O)CNCC(c2ccccc2)N(C)C)cc1` (configuration not stated), for which the IC50 in [3] was 109 µM (active). Regarding `COc1ccc(NC(=O)CCN2CCN(S(=O)(=O)c3ccc(OC)cc3)CC2)cc1`, in experiment [1], the EC50 is recorded as > 195 µM (not active). Turning to `CCOC(=O)C1CCN(C(=O)COc2cc(C)c(Br)cc2C)CC1`, the half-maximal effective concentration (EC50) in experiment [1] was > 195 µM (not active). Regarding `Cc1ccccc1OCC(=O)NCCS(=O)(=O)N1CCN(c2ccc(F)cc2)CC1`, the CC50 in [2] is 38.1 µM (active). On to `Cc1ccc(NC(=O)[C@@H](C)NC(=O)[C@@H]2Cc3ccccc3CN2)cc1`, for which the concentration for a half-maximal effect (EC50) in experiment [1] is given as > 195 µM (not active). As usually defined, the AC50 is the concentration giving half of the maximal activity seen. In the case of `COCCNC(=O)/C(C#N)=C/c1ccc(-c2ccc(OC)cc2[N+](=O)[O-])o1`, the AC50 is 3.55 µM (inconclusive) at Cytochrome P450 2C19, 3.16 µM (inconclusive) at Cytochrome P450 3A4, 2 µM (inconclusive) at Cytochrome P450 1A2 and 39.8 µM (inconclusive) at Cytochrome P450 2C9. Regarding `c1cncc(-c2nnc(SCc3nc4ccccc4[nH]3)o2)c1`, the EC50 in experiment [1] is 126 µM (active). Same read-out and setting: the same measure for `O=C(OCCN1CCN(c2ncc(C(F)(F)F)cc2Cl)CC1)c1ccc(Cl)cc1`: > 195 µM (not active); for `N#CCCn1nnc(-c2ccccc2F)n1`: > 195 µM (not active). As to `Cc1ccc(NC(=O)CC2C(=O)N(Cc3ccccc3)C(=S)N2NC(=O)c2ccccc2)c(C)c1` (configuration not stated), the CC50 in experiment [2] was > 50 µM (active). As for `CCc1nc(NCCO)c(C#N)c2c1CCCC2`, in experiment [2], the CC50 is 30.6 µM (active).

Turning to `O=C(c1ccc(F)cc1)N1CCN(c2cc(N3CCCCC3)c(F)cc2[N+](=O)[O-])CC1`, the CC50 in experiment [2] is 16.6 µM (active).

As to `CC(C)N(C(=O)CSc1nc(COc2ccccc2)nc2ccccc12)C(C)C`, the CC50 in experiment [2] is 23.7 µM (active). With `CC(C)(C)Cc1nnc(NS(=O)(=O)c2ccc(F)cc2)s1`, in experiment [1], the EC50 is on record as > 195 µM (not active).

Turning to `O=C(CNC1CC1)Nc1cc(C(F)(F)F)ccc1Cl`, the IC50 in experiment [3] was 123 µM (active).

For `CCO[C@H]1OC(C(=O)NCc2ccccc2)=C[C@@H](c2ccc(Br)cc2)[C@@H]1CCCO`, in experiment [2], the CC50 was 22 µM (active).

Take `COc1cc(OC)c(C(=O)Nc2ccc(N(C)C)cc2)cc1OC`: in experiment [3], the IC50 was 22.1 µM (active). On to `COc1nc(-c2ccc(C)cc2)ccc1-c1noc(-c2cccnc2)n1`, for which the CC50 in experiment [2] is 31.1 µM (active). As for `CCOC(=O)c1sc(NC(=O)c2ccc(S(=O)(=O)N3CCCCCC3)cc2)nc1-c1ccccc1`, in [2], the CC50 was 7.07 µM (active). With `COc1ccc(C2NS(=O)(=O)N=C2N)cc1` (configuration not stated), the EC50 in [1] is given as > 195 µM (not active). For `Cc1ccc(C(=O)Nc2ccc(C(=O)O)cc2NC(=O)c2ccc(C)cc2)cc1`, the EC50 in experiment [1] is 14.7 µM (active). On the same count and under the same terms, the figure for `COC(=O)C1=C(C)N(CCCC(=O)O)C(=O)NC1c1ccc(C#N)cc1` (configuration not stated) is > 195 µM (not active). `CC(=O)NC(Cc1ccccc1)C(=O)Oc1ccc2ccccc2c1` (configuration not stated): in experiment [3], the IC50 was 39.7 µM (active).

`N#C/C(=C\c1c(Cl)cccc1Cl)c1nc2ccccc2[nH]1`: the CC50 in experiment [2] was 20.3 µM (active). With `COc1ccc(NC(C)C(=O)N/N=C/c2c(O)ccc3ccccc23)cc1` (configuration not stated), the EC50 was 1.25 µM (active) in the experiment with Streptococcus and 1.95 µM (active) in experiment [4]. `Cc1cccc(N2CCC(/N=C/N(C)C)=N2)c1`: the IC50 in [3] was 29.2 µM (active). Consider `COc1cc(/C(C)=N/N2CCN(c3ccccc3OC)CC2)ccc1O`, for which the IC50 in [3] was 208 µM (active). On to `Cn1c(=O)[nH]c(=O)c2c1[nH]c(=S)n2Cc1ccc(Cl)cc1`, for which, in [3], the IC50 was 31.7 µM (active). Consider `Cc1ccsc1/C=C/C1=NCCCN1C` [MORANTEL TARTRATE], for which the concentration giving a half-maximal response (EC50) in [1] is recorded as > 195 µM (not active).
